{"source": "ChEMBL document CHEMBL1201862", "about": "“PubChem BioAssay data set” (2004)", "key": {"[1]": {"target": "Voltage-gated inwardly rectifying potassium channel KCNH2 (Homo sapiens, UniProt Q12809)", "assay": "concentration-dependent hERG rescue from blockers – cell-based, thallium flux, dose response (AID 2121)", "format": "ADME"}, "NADPH oxidase 1": {"target": "T1, NADPH oxidase 1 (Homo sapiens, UniProt Q9Y5S8)", "T1 sequence (Q9Y5S8 whole entry)": "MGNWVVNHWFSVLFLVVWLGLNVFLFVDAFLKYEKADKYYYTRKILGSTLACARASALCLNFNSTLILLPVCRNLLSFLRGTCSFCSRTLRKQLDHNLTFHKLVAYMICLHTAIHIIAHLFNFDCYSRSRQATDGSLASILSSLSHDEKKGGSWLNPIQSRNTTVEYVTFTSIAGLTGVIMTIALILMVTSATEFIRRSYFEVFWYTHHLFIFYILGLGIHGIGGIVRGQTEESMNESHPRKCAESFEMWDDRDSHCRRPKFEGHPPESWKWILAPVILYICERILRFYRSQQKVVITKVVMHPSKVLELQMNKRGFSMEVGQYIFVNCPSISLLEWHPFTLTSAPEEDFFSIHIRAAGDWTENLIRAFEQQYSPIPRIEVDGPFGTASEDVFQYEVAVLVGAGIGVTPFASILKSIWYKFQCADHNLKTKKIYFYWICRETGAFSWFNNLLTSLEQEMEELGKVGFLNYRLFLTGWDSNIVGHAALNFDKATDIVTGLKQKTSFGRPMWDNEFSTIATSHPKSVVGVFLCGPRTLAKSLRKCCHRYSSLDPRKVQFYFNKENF", "assay": "Late-stage luminescence-based cell-based dose response assay to identify inhibitors of NADPH oxidase 1 (NOX1): Purchased analogs 2.", "format": "functional"}, "[2]": {"assay": "antiviral protection against BTV-induced cell death – arbovirus, BSR cells, confirmation (AID 1250);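 also: protection from viral cytopathic effect measured as cell viability by ATP luminescence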", "format": "functional"}, "[3]": {"target": "Induced myeloid leukemia cell differentiation protein Mcl-1 (Homo sapiens, UniProt Q07820)", "format": "functional"}, "[4]": {"target": "Peroxisome proliferator-activated receptor gamma/Nuclear receptor coactivator 2 (Homo sapiens, UniProt P37231)", "sequence (P37231 whole entry)": "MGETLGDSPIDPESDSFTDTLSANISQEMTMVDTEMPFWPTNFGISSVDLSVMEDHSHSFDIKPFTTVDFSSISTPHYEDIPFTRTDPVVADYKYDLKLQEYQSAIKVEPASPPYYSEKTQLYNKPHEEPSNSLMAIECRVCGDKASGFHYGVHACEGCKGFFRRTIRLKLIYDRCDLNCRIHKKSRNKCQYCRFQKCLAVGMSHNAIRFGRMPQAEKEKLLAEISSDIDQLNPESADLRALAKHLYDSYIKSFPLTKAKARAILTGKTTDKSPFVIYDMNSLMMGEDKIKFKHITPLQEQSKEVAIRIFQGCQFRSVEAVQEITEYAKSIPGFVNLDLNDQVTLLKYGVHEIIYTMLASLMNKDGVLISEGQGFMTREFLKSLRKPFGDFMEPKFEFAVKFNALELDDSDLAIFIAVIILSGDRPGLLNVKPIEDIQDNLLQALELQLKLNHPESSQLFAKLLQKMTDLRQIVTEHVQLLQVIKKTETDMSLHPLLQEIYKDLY", "sequence (Q15596 whole entry, further chain)": "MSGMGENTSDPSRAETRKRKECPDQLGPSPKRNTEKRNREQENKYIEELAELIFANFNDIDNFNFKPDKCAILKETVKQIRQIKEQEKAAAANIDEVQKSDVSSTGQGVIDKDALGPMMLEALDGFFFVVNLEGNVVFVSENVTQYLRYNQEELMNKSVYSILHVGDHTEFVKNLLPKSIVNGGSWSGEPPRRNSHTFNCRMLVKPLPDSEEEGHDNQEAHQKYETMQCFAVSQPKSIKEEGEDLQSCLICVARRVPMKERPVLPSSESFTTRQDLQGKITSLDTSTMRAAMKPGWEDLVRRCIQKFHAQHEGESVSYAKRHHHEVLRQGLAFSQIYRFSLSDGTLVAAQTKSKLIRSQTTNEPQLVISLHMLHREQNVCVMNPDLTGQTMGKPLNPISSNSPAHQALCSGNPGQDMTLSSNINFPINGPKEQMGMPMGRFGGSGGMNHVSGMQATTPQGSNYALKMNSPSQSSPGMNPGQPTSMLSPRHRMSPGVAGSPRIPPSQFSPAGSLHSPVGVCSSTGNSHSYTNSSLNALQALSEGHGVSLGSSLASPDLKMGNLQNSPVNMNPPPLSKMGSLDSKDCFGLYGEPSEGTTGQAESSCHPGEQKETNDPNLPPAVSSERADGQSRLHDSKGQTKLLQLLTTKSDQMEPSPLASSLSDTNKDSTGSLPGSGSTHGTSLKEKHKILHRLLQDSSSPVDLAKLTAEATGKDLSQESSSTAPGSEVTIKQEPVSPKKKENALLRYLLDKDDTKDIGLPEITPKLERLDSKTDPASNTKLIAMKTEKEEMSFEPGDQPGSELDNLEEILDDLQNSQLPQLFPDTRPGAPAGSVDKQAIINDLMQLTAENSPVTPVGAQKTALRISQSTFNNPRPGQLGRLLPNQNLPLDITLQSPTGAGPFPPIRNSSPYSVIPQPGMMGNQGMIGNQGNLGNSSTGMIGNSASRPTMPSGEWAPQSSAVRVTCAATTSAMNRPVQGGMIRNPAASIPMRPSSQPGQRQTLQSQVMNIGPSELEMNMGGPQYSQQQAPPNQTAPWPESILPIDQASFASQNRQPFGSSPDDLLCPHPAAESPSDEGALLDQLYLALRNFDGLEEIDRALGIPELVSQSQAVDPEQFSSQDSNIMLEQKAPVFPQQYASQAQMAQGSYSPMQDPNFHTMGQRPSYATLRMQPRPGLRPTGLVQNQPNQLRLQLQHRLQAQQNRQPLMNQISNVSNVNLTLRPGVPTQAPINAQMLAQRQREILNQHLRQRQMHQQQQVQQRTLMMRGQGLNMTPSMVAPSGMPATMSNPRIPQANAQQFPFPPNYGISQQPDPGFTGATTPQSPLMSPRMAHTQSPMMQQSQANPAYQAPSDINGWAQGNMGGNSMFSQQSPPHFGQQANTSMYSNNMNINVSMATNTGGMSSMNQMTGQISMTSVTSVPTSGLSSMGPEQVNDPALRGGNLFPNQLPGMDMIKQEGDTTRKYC", "assay": "(§1) TR-FRET dose response biochemical High Throughput Screening assay for agonists of the steroid receptor coactivator 2 (SRC-2) recruitment by the peroxisome proliferator-activated receptor gamma (PPAR gamma): non-selective agonists. [Related pubchem assays: 1297, 1032 ]", "format": "functional"}, "[5]": {"target": "Peroxisome proliferator-activated receptor gamma/Nuclear receptor coactivator 1 (Homo sapiens, UniProt P37231)", "assay": "as §1, with “1 (SRC-1)” for “2 (SRC-2)”, “assays (depositor defined):AID1300, AID1808, AID504735, AID631]” for “assays: 1297, 1032 ]”", "format": "protein assay"}, "[6]": {"target": "Photoreceptor-specific nuclear receptor (Homo sapiens, UniProt Q9Y5X4)", "assay": "ligands suppressing NR2E3 nuclear receptor activity – biochemical, TR-FRET, dose response (AID 463256)", "format": "functional"}, "[7]": {"target": "Peroxisome proliferator-activated receptor gamma/Nuclear receptor coactivator 3 (Homo sapiens, UniProt P37231)", "assay": "as §1, with “3 (SRC-3)” for “2 (SRC-2)”, “1301 (Confirmation screen.), 1048 (Primary screen.)]” for “1297, 1032 ]”", "format": "functional"}, "[8]": {"target": "Peroxisome proliferator-activated receptor gamma/Nuclear receptor corepressor 2 (Homo sapiens, UniProt P37231+Q9Y618)", "sequence (P37231 whole entry)": "as the sequence (P37231 whole entry) above", "sequence (Q9Y618 whole entry)": "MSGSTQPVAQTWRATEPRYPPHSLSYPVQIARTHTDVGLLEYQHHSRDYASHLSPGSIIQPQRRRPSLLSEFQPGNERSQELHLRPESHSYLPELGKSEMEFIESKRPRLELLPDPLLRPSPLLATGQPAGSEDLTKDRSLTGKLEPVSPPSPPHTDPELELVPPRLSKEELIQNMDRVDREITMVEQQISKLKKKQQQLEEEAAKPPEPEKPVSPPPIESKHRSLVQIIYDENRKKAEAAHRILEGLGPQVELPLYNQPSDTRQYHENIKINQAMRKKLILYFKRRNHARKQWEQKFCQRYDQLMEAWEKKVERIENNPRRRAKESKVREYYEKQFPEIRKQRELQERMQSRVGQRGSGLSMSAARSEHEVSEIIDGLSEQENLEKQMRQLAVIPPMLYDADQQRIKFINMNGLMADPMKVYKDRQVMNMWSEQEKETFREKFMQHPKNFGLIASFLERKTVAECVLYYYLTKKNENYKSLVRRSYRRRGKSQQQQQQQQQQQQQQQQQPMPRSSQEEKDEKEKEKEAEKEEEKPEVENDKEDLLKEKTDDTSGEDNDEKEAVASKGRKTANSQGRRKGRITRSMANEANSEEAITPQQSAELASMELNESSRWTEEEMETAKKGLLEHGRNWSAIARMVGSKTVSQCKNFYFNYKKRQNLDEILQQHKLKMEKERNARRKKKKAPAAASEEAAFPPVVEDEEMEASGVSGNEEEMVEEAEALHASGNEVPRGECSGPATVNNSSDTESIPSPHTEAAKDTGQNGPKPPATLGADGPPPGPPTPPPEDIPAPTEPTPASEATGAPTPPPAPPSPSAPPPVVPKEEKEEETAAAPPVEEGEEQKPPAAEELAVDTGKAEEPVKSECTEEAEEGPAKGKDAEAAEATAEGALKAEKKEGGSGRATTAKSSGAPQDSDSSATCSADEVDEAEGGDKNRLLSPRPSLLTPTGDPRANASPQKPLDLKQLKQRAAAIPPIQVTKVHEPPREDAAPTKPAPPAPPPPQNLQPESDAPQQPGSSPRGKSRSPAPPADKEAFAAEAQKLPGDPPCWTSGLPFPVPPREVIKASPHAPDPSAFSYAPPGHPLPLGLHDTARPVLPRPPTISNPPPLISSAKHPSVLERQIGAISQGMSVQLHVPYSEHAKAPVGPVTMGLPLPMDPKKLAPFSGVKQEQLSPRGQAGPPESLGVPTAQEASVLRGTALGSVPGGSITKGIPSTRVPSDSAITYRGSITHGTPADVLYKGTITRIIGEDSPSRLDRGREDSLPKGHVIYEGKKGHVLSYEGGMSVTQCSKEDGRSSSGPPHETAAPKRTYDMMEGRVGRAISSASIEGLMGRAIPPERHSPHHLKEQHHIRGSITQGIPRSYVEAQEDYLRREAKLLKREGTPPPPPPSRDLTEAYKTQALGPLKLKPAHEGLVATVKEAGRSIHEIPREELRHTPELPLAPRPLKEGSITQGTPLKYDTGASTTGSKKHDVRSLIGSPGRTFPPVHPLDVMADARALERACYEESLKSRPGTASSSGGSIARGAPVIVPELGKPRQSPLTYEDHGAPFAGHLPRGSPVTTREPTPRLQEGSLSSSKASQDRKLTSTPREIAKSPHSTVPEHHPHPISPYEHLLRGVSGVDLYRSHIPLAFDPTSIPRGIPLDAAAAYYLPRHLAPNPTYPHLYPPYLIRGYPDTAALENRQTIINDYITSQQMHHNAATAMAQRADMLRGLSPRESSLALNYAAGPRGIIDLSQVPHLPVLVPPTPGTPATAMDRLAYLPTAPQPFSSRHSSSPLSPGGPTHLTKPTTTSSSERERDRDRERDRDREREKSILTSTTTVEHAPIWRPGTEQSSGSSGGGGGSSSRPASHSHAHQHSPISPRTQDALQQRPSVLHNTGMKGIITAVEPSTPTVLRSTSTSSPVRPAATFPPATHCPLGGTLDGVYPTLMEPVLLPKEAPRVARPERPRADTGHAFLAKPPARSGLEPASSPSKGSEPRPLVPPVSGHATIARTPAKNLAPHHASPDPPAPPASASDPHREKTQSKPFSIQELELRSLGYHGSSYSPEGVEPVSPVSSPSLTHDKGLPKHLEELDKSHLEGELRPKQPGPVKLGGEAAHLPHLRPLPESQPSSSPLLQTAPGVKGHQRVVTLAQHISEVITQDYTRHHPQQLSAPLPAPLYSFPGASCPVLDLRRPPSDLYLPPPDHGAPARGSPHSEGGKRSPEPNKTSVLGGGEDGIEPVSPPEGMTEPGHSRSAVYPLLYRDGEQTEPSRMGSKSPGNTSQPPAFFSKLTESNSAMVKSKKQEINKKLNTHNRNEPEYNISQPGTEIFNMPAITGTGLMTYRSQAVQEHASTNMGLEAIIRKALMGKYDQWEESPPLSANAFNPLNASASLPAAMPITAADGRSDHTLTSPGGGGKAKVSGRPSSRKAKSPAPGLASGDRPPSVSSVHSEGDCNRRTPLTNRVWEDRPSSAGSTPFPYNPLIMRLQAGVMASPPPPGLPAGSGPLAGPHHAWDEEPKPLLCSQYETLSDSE", "assay": "Counterscreen for NR2E3 inverse agonists: TR-FRET-based biochemical high throughput dose response assay to identify inverse agonists of the interaction between peroxisome proliferator-activated receptor gamma (PPARg) and nuclear receptor co-repressor 2 (NCOR2).", "format": "functional"}, "[9]": {"target": "Sphingosine 1-phosphate receptor 3 (Homo sapiens, UniProt Q99500)", "assay": "Dose response cell-based high throughput screening assay for antagonists of the Sphingosine 1-Phosphate Receptor 3 (S1P3). [Related pubchem assays: 1429, 485 ]", "format": "functional"}, "[10]": {"target": "5-hydroxytryptamine receptor 1E (Homo sapiens, UniProt P28566)", "assay": "Counterscreen assay for S1P3 antagonists: Dose response cell-based high throughput screening assay to identify antagonists of the 5-Hydroxytryptamine Receptor Subtype 1E (5HT1E). [Related pubchem assays: 1429, 485 ]", "format": "functional"}, "Estrogen receptor": {"target": "Estrogen receptor (Homo sapiens, UniProt P03372)"}, "Estrogen receptor beta": {"target": "Estrogen receptor beta (Homo sapiens, UniProt Q92731)"}, "[11]": {"target": "T2, Neuropeptide Y receptor type 2 (Homo sapiens, UniProt P49146)", "T2 sequence (P49146 whole entry)": "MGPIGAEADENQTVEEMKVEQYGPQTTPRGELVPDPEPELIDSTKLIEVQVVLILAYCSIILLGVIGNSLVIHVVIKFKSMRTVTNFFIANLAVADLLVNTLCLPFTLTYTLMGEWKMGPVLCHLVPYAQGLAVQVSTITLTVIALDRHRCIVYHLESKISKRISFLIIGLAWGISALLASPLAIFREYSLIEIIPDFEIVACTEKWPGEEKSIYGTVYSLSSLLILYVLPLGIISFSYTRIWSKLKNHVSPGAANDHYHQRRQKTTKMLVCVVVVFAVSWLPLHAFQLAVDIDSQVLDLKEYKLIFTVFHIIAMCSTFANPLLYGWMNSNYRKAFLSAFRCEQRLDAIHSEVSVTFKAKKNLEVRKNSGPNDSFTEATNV", "assay": "IC50 for human NPY-Y2 blockade – cell-based, counter-screen for NPY-Y1 antagonist project, dose response (AID 1278)", "format": "functional"}, "[12]": {"target": "T3, Neuropeptide Y receptor type 1 (Homo sapiens, UniProt P25929)", "T3 sequence (P25929 whole entry)": "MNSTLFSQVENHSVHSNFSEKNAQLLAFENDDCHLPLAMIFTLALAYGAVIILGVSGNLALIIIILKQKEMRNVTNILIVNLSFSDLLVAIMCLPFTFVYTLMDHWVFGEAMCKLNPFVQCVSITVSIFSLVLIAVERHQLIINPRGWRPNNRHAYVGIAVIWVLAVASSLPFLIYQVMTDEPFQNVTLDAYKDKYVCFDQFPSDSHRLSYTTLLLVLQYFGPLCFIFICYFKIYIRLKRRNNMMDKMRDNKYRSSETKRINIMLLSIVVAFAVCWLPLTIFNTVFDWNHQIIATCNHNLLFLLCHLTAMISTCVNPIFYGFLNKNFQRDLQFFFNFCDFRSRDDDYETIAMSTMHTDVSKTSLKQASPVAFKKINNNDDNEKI", "assay": "IC50 of human NPY-Y1 blockers – cell-based, dose response (AID 1277)", "format": "functional"}, "[13]": {"assay": "A High Throughput Confirmatory Assay used to Identify Novel Compounds that Inhibit Mycobacterium Tuberculosis in the absence of Glycerol.", "format": "functional"}, "[14]": {"assay": "Trypanosoma cruzi growth suppression in host cells – NIH3T3 host cells, beta-gal luminescence, confirmation (AID 2044)", "format": "functional, cell-based"}, "[15]": {"assay": "NIH3T3 cell viability loss – ATP luminescence, mouse fibroblasts, counter-screen, dose response (AID 2010)", "format": "functional, cell-based"}, "Bcl-2-related protein A1 [16]": {"target": "T4, Bcl-2-related protein A1 (Mus musculus, UniProt Q07440)", "T4 sequence (Q07440 whole entry)": "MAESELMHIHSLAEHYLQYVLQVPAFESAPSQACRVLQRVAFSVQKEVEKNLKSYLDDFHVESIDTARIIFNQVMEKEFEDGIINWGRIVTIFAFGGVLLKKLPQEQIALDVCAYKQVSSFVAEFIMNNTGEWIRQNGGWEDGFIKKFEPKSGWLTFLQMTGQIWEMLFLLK", "assay": "small-molecule antagonists of Bfl-1/BH3 interaction – biochemical, TR-FRET, mouse Bfl-1, confirmation (AID 621)"}, "Bcl-2-related protein A1 [17]": {"target": "T4, Bcl-2-related protein A1", "assay": "Bfl-1 binding inhibitors, SAR follow-up, biochemical, fluorescence polarization (AID 1070)"}, "[18]": {"target": "Glyceraldehyde-3-phosphate dehydrogenase (Homo sapiens, UniProt P04406)"}}, "note": "Activity calls are given as the source filed them.", "data": [{"molecule": "CCOc1ccccc1NC(=O)C(=O)CC(=O)c1ccc(OC)cc1", "values": [{"measurement": "EC50", "setting": "[1]", "result": "3.01 µM (active)"}]}, {"molecule": "C=C(NNc1c(F)c(F)nc(F)c1F)c1ccc(OC)cc1", "values": [{"measurement": "IC50", "setting": "NADPH oxidase 1", "result": "> 17 µM (not active)"}]}, {"molecule": "CN1CCN(S(=O)(=O)c2ccc(NC(=S)NC(=O)c3ccc(Cl)cc3)cc2)CC1", "values": [{"measurement": "IC50", "setting": "[2]", "result": "> 100 µM (active)"}, {"measurement": "IC50", "setting": "[3]", "result": "4.19 µM (active)"}]}, {"molecule": "O=C(COc1ccc2ccccc2c1)NCCNC(=O)COc1ccc2ccccc2c1", "values": [{"measurement": "EC50", "setting": "[4]", "result": "8.67 µM (active)"}, {"measurement": "EC50", "setting": "[5]", "result": "8.38 µM (active)"}, {"measurement": "IC50", "setting": "[6]", "result": "4.75 µM (active)"}, {"measurement": "EC50", "setting": "[7]", "result": "47.8 µM (not active)"}, {"measurement": "IC50", "setting": "[8]", "result": "5.82 µM (active)"}]}, {"molecule": "Cc1ccc(NC(=O)C(OC(=O)c2ccccc2Cl)c2ccccc2)cc1Cl", "note": "(stereo unspecified)", "values": [{"measurement": "IC50", "setting": "[9]", "result": "9.24 µM (active)"}, {"measurement": "IC50", "setting": "[10]", "result": "5.28 µM (active)"}]}, {"molecule": "CCOC(=O)C1=C(O)/C(=C\\c2ccc(CNC(=O)C(=O)Nc3ccc(C)c(C)c3)o2)N=C1C", "values": [{"measurement": "IC50", "setting": "Estrogen receptor", "result": "40.5 µM (not active)"}, {"measurement": "IC50", "setting": "Estrogen receptor beta", "result": "> 50 µM (not active)"}]}, {"molecule": "CC1=CC(C)(C)N(C(=O)CNC2CCCCC2)c2cc(C)ccc21", "values": [{"measurement": "IC50", "setting": "[11]", "result": "12.3 µM (not active)"}, {"measurement": "IC50", "setting": "[12]", "result": "6.84 µM (active)"}]}, {"molecule": "CCCCNc1nc(N(C)c2ccccc2)nc(-n2ccnc2)n1", "values": [{"measurement": "IC50", "setting": "[13]", "result": "> 100 µM (active)"}, {"measurement": "EC50", "setting": "[14]", "result": "0.55 µM (active)"}, {"measurement": "EC50", "setting": "[15]", "result": "> 30 µM (not active)"}]}, {"molecule": "O=C1C(Cl)=C(N2CCOCC2)C(=O)N1c1c(Cl)cccc1Cl", "values": [{"measurement": "IC50", "setting": "Bcl-2-related protein A1 [16]", "result": "> 100 µM (not active)"}, {"measurement": "IC50", "setting": "Bcl-2-related protein A1 [17]", "result": "> 100 µM (not active)"}, {"measurement": "IC50", "setting": "[18]", "result": "> 10 µM (inconclusive)"}]}]}
